In patent publication US6372691B1, “Method for controlling weeds” (Sumitomo Chemical Company, Limited, priority 1999, dated 2002):

Tests used:
Type in all cases: in vivo
[1] = test system: common cocklebur (Xanthium strumarium); experiment: Test Example 2: foliar application in greenhouse pots, herbicidal activity; design: key: “0” means that there was no or little difference in the degree of germination or growth between the treated and the untreated tested plants at the time of examination; “10” means that the test plants died completely or their germination or growth was completely inhibited; settings: index 0 to 10, 10 days after application
Procedure: (§1) The evaluation of phytotoxicity is as follows:
(§2) Plastic pots having a diameter of 11 cm and a depth of 8 cm were filled with upland soil, and seeded with common cocklebur (Xanthium strumarium) . The test plants were grown in a greenhouse for 5 days. After that, corn was further seeded in each of the above pots and the test plants were grown in the greenhouse for further 16 days. Emulsifiable concentrate comprising compound A or Comparative compound obtained by well mixing 5 parts of compound A or Comparative compound, 6 parts of Sorpol 3005X (produced by Toho Chemical Industry, Co., Ltd.) and 89 parts of xylene was diluted with prescribed amount of water, and the dilution was applied over the test plants uniformly using a small sprayer. The leaf stage of the corns grown for 16 days were 2-leaf stage. After the application, the test plants were grown in the greenhouse for 10 days and then, herbicidal activity and phytotoxicity to corn were examined.

corn [2] = experiment: Test Example 2: phytotoxicity to corn; design: key: No harm: Phytotoxicity is hardly seen.; Slight phytotoxicity which does not affect the growth of corn is seen.; Light phytotoxicity and light growth inhibition of corn are seen.; Middle phytotoxicity and growth inhibition of corn are seen.; Serious phytotoxicity and serious growth inhibition of corn are seen; settings: corn at 2-leaf stage, 10 days after application
Procedure: as §1
(§3) No harm: Phytotoxicity is hardly seen.
(§4) Light: Light phytotoxicity and light growth inhibition of corn are seen.
(§5) Middle: Middle phytotoxicity and growth inhibition of corn are seen.
(§6) Serious: Serious phytotoxicity and serious growth inhibition of corn are seen.
as §2

[3] = test system: common lambsquarters (Chenopodium album); experiment: Test Example 1: foliar application in greenhouse pots, herbicidal activity; design: key: “0” means that there was no or little difference in the degree of germination or growth between the treated and the untreated tested plants at the time of examination; “10” means that the test plants died completely or their germination or growth was completely inhibited; settings: index 0 to 10, 10 days after application
Procedure: as §1
(§7) Plastic pots having a diameter of 11 cm and a depth of 8 cm were filled with upland soil, and seeded with common lambsquarters (Chenopodium album), ivyleaf morningglory (Ipomoea hederacea), velvetleaf (Abutilon theophrasti), and corn. The test plants were grown in a greenhouse for 7 days. After that, other corn was further seeded in each of the above pots and the test plants were grown in the greenhouse for further 19 days. Emulsifiable concentrate comprising compound A obtained by well mixing 5 parts of compound A, 6 parts of Sorpol 3005X (produced by Toho Chemical Industry, Co., Ltd.) and 89 parts of xylene was diluted with prescribed amount of water, and the dilution was applied over the test plants uniformly using a small sprayer. The leaf stage of the corns grown for 26 days and 19 days were 2-leaf stage and 1-leaf stage, respectively. After the application, the test plants were grown in the greenhouse for 10 days and then, herbicidal activity and phytotoxicity to corn were examined.

[4] = test system: ivyleaf morningglory (Ipomoea hederacea); experiment: as above; design: key: “0” means that there was no or little difference in the degree of germination or growth between the treated and the untreated tested plants at the time of examination; “10” means that the test plants died completely or their germination or growth was completely inhibited; settings: index 0 to 10, 10 days after application
Procedure: as §1, §7

[5] = test system: velvetleaf (Abutilon theophrasti); experiment: as above; design: key: “0” means that there was no or little difference in the degree of germination or growth between the treated and the untreated tested plants at the time of examination; “10” means that the test plants died completely or their germination or growth was completely inhibited; settings: index 0 to 10, 10 days after application
Procedure: as §1, §7

corn [6] = experiment: Test Example 1: phytotoxicity to corn; design: key: No harm: Phytotoxicity is hardly seen.; Slight phytotoxicity which does not affect the growth of corn is seen.; Light phytotoxicity and light growth inhibition of corn are seen.; Middle phytotoxicity and growth inhibition of corn are seen.; Serious phytotoxicity and serious growth inhibition of corn are seen; settings: 10 days after application; for Phytotoxicity C1: corn at 1-leaf stage; for Phytotoxicity C2: corn at 2-leaf stage
From the text: as §1, §3, §4, §5, §6, §7

COC(=O)CSc1cc(-n2c(=O)cc(C(F)(F)F)n(C)c2=O)c(F)cc1Cl [Comparative compound, reference compound]
Herbicidal activity Cocklebur ([1]; dosage 2.5 g/ha): 8
Herbicidal activity Cocklebur ([1]; dosage 5 g/ha): 10
Herbicidal activity Cocklebur ([1]; dosage 10 g/ha): 10
Phytotoxicity corn (corn [2]; dosage 2.5 g/ha): No harm
Phytotoxicity corn (corn [2]; dosage 5 g/ha): Slight
Phytotoxicity corn (corn [2]; dosage 10 g/ha): light

COC(=O)C(C)Oc1cc(-n2c(=O)cc(C(F)(F)F)n(C)c2=O)c(F)cc1Cl (stereo not drawn) [Compound A, methyl 2-[2-chloro-4-fluoro-5-{3-methyl-2,6-dioxo-4-(trifluoromethyl)-1,2,3,6-tetrahydropyrimidin-1-yl}phenoxy]propionate]
Herbicidal activity La ([3]; dosage 5 g/ha): 9
Herbicidal activity La ([3]; dosage 10 g/ha): 10
Herbicidal activity La ([3]; dosage 20 g/ha): 10
Herbicidal activity Mo ([4]; dosage 5 g/ha): 10
Herbicidal activity Mo ([4]; dosage 10 g/ha): 10
Herbicidal activity Mo ([4]; dosage 20 g/ha): 10
Herbicidal activity Ve ([5]; dosage 5 g/ha): 10
Herbicidal activity Ve ([5]; dosage 10 g/ha): 10
Herbicidal activity Ve ([5]; dosage 20 g/ha): 10
Phytotoxicity C1 (corn [6]; dosage 5 g/ha): No harm
Phytotoxicity C1 (corn [6]; dosage 10 g/ha): No harm
Phytotoxicity C1 (corn [6]; dosage 20 g/ha): Slight
Phytotoxicity C2 (corn [6]; dosage 5 g/ha): No harm
Phytotoxicity C2 (corn [6]; dosage 10 g/ha): No harm
Phytotoxicity C2 (corn [6]; dosage 20 g/ha): No harm
Herbicidal activity Cocklebur ([1]; dosage 2.5 g/ha): 10
Herbicidal activity Cocklebur ([1]; dosage 5 g/ha): 10
Herbicidal activity Cocklebur ([1]; dosage 10 g/ha): 10
Phytotoxicity corn (corn [2]; dosage 2.5 g/ha): No harm
Phytotoxicity corn (corn [2]; dosage 5 g/ha): No harm
Phytotoxicity corn (corn [2]; dosage 10 g/ha): No harm
